Test results reported in article PMC9944328 (Nature Communications, 2023).
Read-outs that look alike come from different tables or passages of the source.

Tested on: SSTR2 mutants
Assay: NanoBiT β-arrestin 1 recruitment assay, HEK293 (SSTR2 mutants);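 as to Emax: percent of the maximal wild-type SSTR2 response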;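 as to Top: percent of maximal wild-type response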
Type: cell-based, human
Set-up: Bottom / Span / Bottom (best-fit) / Span (best-fit) / Best-fit values Bottom / Best-fit values Span / Bottom (best-fit value) / Span (best-fit value):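 percent of maximal wild-type response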
Details: for EC50: read-out: EC50
Method: The NanoBiT β-arrestin 1 recruitment assays were carried out according to the method described previously. […] Human full-length SSTR wild-type and mutant vectors were C-terminally fused with a 15-amino acid flexible linker and the small fragment (SmBiT). HEK293 cells were seeded into six-well microplates at a density of 1.0 × 10^6 cells/well and cultured for 24 h at 37 °C with 5% CO2. After that, cells were co-transfected with pcDNA3.1+ vectors encoding SSTR wild-type or mutants and human β-arrestin 1. After transfecting for 24 h, the transfected cells were suspended and seeded into white 96-well plates, and then cultured at 37 °C overnight. After that the medium in each well was exchanged for 90 μl of 0.01% bovine serum albumin containing 20 μl of 50 μM coelenterazine h (Carbosynth) diluted in the HBSS assay buffer and incubated for 40 min at room temperature. Then, ligands diluted in the assay buffer was added to each well and the luminescence intensity was measured using the Synergy H1 microplate reader and detected at room temperature in a time period. All data presented are means of at least three independent experiments.

[1] = β-arrestin recruitment, SSTR2 F127(3.37)A, n=3
[2] = β-arrestin recruitment, SSTR2 I195(45.52)A, n=3, ND = not detected
[3] = β-arrestin recruitment, SSTR2 I284ECL3A, n=3
[4] = β-arrestin recruitment, SSTR2 L290(7.31)A, n=3
[5] = β-arrestin recruitment, SSTR2 P286ECL3A, n=3
[6] = β-arrestin recruitment, SSTR2 S279(6.58)A, n=3
[7] = β-arrestin recruitment, SSTR2 S285ECL3A, n=3
[8] = β-arrestin recruitment, SSTR2 T287ECL3A, n=3
[9] = β-arrestin recruitment, SSTR2 V103(2.64)A, n=3, ND = not detected
[10] = β-arrestin recruitment, SSTR2 W188ECL3A, n=3
[11] = β-arrestin recruitment, SSTR2 W269(6.48)A, n=3
[12] = β-arrestin recruitment, SSTR2 Y50(1.39)A, n=3
[13] = β-arrestin recruitment, SSTR2 Y205(5.35)A, n=3
[14] = β-arrestin recruitment, SSTR2 Y302(7.43)A, n=3

## C[C@@H](O)[C@@H]1NC(=O)[C@H](CCCCN)NC(=O)[C@@H](Cc2c[nH]c3ccccc23)NC(=O)[C@H](Cc2ccccc2)NC(=O)[C@@H](NC(=O)[C@H](N)Cc2ccccc2)CSSC[C@@H](C(=O)N[C@H](CO)[C@@H](C)O)NC1=O [octreotide]
best-fit, S285A-3
  Bottom: 9.309
  LogEC50: -8.736
  Span: 80.53
  Top: 89.84
  EC50: 1.84 nM
best-fit, T194A-1
  Bottom: -0.5401
  Top: 55.89
best-fit, T194A-2
  Bottom: -0.9576
  Top: 54.95
best-fit, T194A-3
  Bottom: -0.591
  Top: 56.22
best-fit, T287A-1
  Bottom: 4.198
  LogEC50: -8.213
  Span: 84.87
  Top: 89.07
  EC50: 6.12 nM
best-fit, T287A-2
  Bottom: 5.592
  LogEC50: -8.324
  Span: 86.73
  Top: 92.33
  EC50: 4.75 nM
best-fit, T287A-3
  Bottom: 0.1327
  LogEC50: -8.522
  Span: 80.53
  Top: 80.66
  EC50: 3 nM
best-fit, W188A-1
  LogEC50: -8.611
  Span: 57.05
  Top: 61.7
  EC50: 2.45 nM
best-fit, W188A-2
  Bottom: 0.0794
  LogEC50: -8.245
  Span: 81.84
  Top: 81.92
  EC50: 5.69 nM
best-fit, W188A-3
  Bottom: 6.02
  LogEC50: -8.295
  Span: 58.94
  Top: 64.96
  EC50: 5.07 nM
β-arrestin recruitment, I130A, earlier manuscript version quoted by reviewer, superseded
  Emax: 60%
β-arrestin recruitment, SSTR2 D295(7.36)A, detected at 10 μM, n=3
  Emax: 119.20±34.68 %WT
β-arrestin recruitment, SSTR2 D295(7.36)A, n=3
  EC50: 319 ± 6.78 nM
[1]
  Emax: 52.62±2.57 %WT
  EC50: 4.33 ± 1.53 nM
β-arrestin recruitment, SSTR2 F208(5.38)A, n=3
  Emax: 75.93±9.81 %WT
β-arrestin recruitment, SSTR2 F208(5.38)A, n=3, ND = not detected
  EC50: 163 ± 6.17 nM
β-arrestin recruitment, SSTR2 F265(6.44)A, detected at 10 μM, n=3 octreotide, 4 paltusotine
  Emax: 67.17±9.75 %WT
β-arrestin recruitment, SSTR2 I130(3.40)A, detected at 10 μM, n=3
  Emax: 76.52±9.52 %WT
[2]
  Emax: 59.10±0.47 %WT
  EC50: 54.3 ± 4.1 nM
[3]
  Emax: 89.03±9.00 %WT
  EC50: 55.7 ± 2.03 nM
β-arrestin recruitment, SSTR2 L99(2.60)A, n=3
  Emax: 96.13±25.27 %WT
β-arrestin recruitment, SSTR2 L99(2.60)A, n=3, ND = not detected
  EC50: 91.6 ± 3.34 nM
[4]
  Emax: 85.66±1.04 %WT
  EC50: 1.8 nM
β-arrestin recruitment, SSTR2 P220(5.50)A, n=3
  Emax: 61.16±16.24 %WT
β-arrestin recruitment, SSTR2 P220(5.50)A, n=3 octreotide, 4 paltusotine, ND = not detected
  EC50: 99.8 ± 9 nM
[5]
  Emax: 76.51±12.11 %WT
  EC50: 6.35 ± 1.59 nM
β-arrestin recruitment, SSTR2 Q102(2.63)A, detected at 10 μM, n=3
  Emax: 57.95±5.20 %WT
[6]
  Emax: 87.86±7.76 %WT
  EC50: 11.9 ± 4.76 nM
[7]
  Emax: 79.09±5.45 %WT
  EC50: 0.84 nM
β-arrestin recruitment, SSTR2 T194(45.51)A, n=3
  Emax: 55.69±0.38 %WT
β-arrestin recruitment, SSTR2 T194(45.51)A, n=3, ND = not detected
  EC50: 48.7 ± 3.38 nM
[8]
  Emax: 87.90±2.95 %WT
  EC50: 4.71 ± 8.35 nM
[9]
  Emax: 84.83±0.26 %WT
  EC50: 63.7 ± 5.11 nM
[10]
  Emax: 69.46±6.21 %WT
  EC50: 4.34 ± 9.5 nM
[11]
  Emax: 33.36±2.81 %WT
  EC50: 55.3 ± 1.35 nM
[12]
  Emax: 61.91±5.26 %WT
  EC50: 4.87 ± 3.17 nM
[13]
  Emax: 108.30±13.91 %WT
  EC50: 8.52 ± 5.74 nM
[14]
  Emax: 109.40±18.82 %WT
  EC50: 1.82 nM
